{"source": "patent US5344922A", "about": "“4-hydroxyquinaldic acid derivatives” (priority 1992, dated 1994)", "key": {"[1]": {"target": "T1, NMDA receptor/channel complex (Rattus norvegicus, UniProt P35439)", "T1 construct": "buffy coat rat cortical membrane preparation; from tissue; host or cells: rat cerebral cortex, buffy coat membranes", "experiment": "biochemical", "format": "biochemical", "experimental": "(§1) The tissue was homogenized in a glass grinding vessel with a teflon pestle in ice-cold 0.32 M sucrose and centrifuged for 10 min at 1000×g. The resultant supernatant was decanted and recentrifuged at 20,000×g for 20 min. The pellet was resuspended in 20 volumes of ice-cold dH20 and centrifuged for 20 min at 8000×g. The supernatant and the buffy coat were then re-collected and recentrifuged at 48,000×g for 20 min. The pellet was resuspended in 20 volumes of ice-cold water and centrifuged for 20 min at 48,000×g, after which it was stored at -20° C. for not more than two weeks. On the day of the assay, the pellet was thawed, resuspended in 40 volumes of buffer, incubated at 37° C. for 20 min in the appropriate buffer, and centrifuged for 10 min at 48,000×g. The pellet was then resuspended in 40 volumes of buffer and recentrifuged at 48,000×g for 10 min. This step was repeated twice before the pellet finally resuspended in a buffer suitable for the particular binding assay. Protein concentrations were determined by the method described by Smith (1985).\nD. ^3 H-TCP Binding Assay\nThe dissociative anesthetics ketamine and phencyclidine (PCP) selectively antagonize depolarizations produced by NMDA.\n^3 H-TCP binding assays were initiated by addition of 100 μl aliquots of membrane homogenate (approximately 150 μg protein) to test tubes containing 5 nM ^3 H-TCP in the presence or absence of the test drug(s) dissolved in 10 mM HEPES buffer pH 7.5. The final volume in each tube was 1 ml, and tubes were incubated for 2 hr at 23° C. Non-specific binding was defined as that remaining in the presence of 30 μM PCP. The filtration procedure was used as described above except that the filters were presoaked for one hour in 0.03% polyethyleneimine (PEI) (Sigma) to reduce filter binding. Scintillation counting was performed as described above.\nPreviously washed rat cortical membranes were resuspended at approximately 0.1 mg protein/ml in the appropriate buffer (pH 7.4 at 23° C.), and 30 ml were placed in each of 3 or 4 150×25 mm polystyrene culture dishes on a rotating shaker. A 200 μL aliquot of a 10 mM solution of 7-chloro-4-hydroxy-2-quinoline carbonyl azide dissolved in DMSO was added and the solution was mixed for 10 min in the dark. Photolysis was accomplished by exposure of the reaction mixture to 366 nm long-wave ultraviolet light (Transilluminator, Fotodyne, Model 3-3000) at a distance of 5 cm for 10 min with continuous mixing.\n(§2) The Hill slopes (nH) and maximal displacement of radioligand binding were estimated by non-linear curve-fitting to a sigmoidal algorithm using the EBDA portion of the LIGAND data analysis software package for the IBM-PC (Elsevier). K1 values were obtained from the LIGAND analysis of the same data. KD and Bmax estimates were obtained by non-linear curve-fitting of the saturation isotherm using programs from the same software package (Munson and Rodbard, 1980). All data analysis was performed on each of 3-7 individual experiments performed in triplicate (7 concentrations) or duplicate (10 concentrations). Reported values are the mean ±S.E.M. of these analyses. For displacement experiments, these values were plotted with the sigmoid curve taken as the average of the sigmoidal fits of each individual experiment."}, "[2]": {"experiment": "Solubility", "format": "physicochemical", "experimental": "(§3) Thus, in all experiments, 7-chloro-4-hydroxy-2-quinoline carbonyl azide was first dissolved at high concentrations (1-10 mM) in dimethylsulfoxide (DMSO) and then diluted in the appropriate physiological buffer. […] The appropriate DMSO control was performed at the same time, and no changes in the binding of radioligands were ever observed. This procedure, and all subsequent procedures where non-photolyzed material was desired, were performed under red light."}, "[3]": {"test_system": "NMDA receptor", "experiment": "Photolabeling of cortical membranes followed by SDS polyacrylamide gel electrophoresis", "format": "binding, rat", "details": "cortical membranes photolabeled, 366 nm; bands Rf 0.71 and 0.53", "experimental": "E. Photolabeling with 7-chloro-4-hydroxy-2-quinoline carbonyl azide\nas §3\nPreviously washed rat cortical membranes were resuspended at approximately 0.1 mg protein/ml in the appropriate buffer (pH 7.4 at 23° C.), and 30 ml were placed in each of 3 or 4 150×25 mm polystyrene culture dishes on a rotating shaker. A 200 μL aliquot of a 10 mM solution of 7-chloro-4-hydroxy-2-quinoline carbonyl azide dissolved in DMSO was added and the solution was mixed for 10 min in the dark. […]\nCortical membranes were photolabeled with 7-chloro-4-hydroxy-2-quinoline as described in Example II, section E. Protein concentration of this preparation was determined using the BCA protein assay kit (Pierce, Rockford, Ill.). […]\nGels were removed and fluorescent bands visualized and recorded using a transilluminator (Fotodyne, New Berlin, Wis.) fitted with four 366nm UV bulbs (15 watts). […]"}, "[4]": {"target": "NMDA recognition site", "experiment": "NMDA-specific 3H-L-glutamate binding assay in cortical membranes", "set-up": "species or system rat", "experimental": "as §1, with “^3 H-Glycine (^3 H-GLY), ^3 H-TCP and NMDA specific ^3 H-GLU binding assays were performed in a buffy coat rat cortical membrane preparation (Jones et al., 1989). The tissue” for “The tissue”, “at 48,000×g. […] Protein concentrations” for “at 48,000×g. The pellet was then resuspended in 40 volumes of buffer and recentrifuged at 48,000×g for 10 min. This step was repeated twice before the pellet finally resuspended in a buffer suitable for the particular binding assay. Protein concentrations”, “Smith (1985). […]” for “Smith (1985).”\nFor equilibrium saturation experiments, different concentrations of ^3 H-glutamate (diluted with unlabeled L-glutamate) ranging from 10 to 320 nM in the presence or absence of test drug(s) were examined. Non-specific binding was defined as that remaining in the presence of 300 μM NMDA and was determined at the lowest and the highest concentration of ^3 H-L-glutamate. […]"}, "[5]": {"target": "T2, strychnine-insensitive glycine site associated with the NMDA receptor/channel complex (Rattus norvegicus, UniProt P35439)", "T2 construct": "buffy coat rat cortical membrane preparation; from tissue; host or cells: rat cerebral cortex, buffy coat membranes", "experiment": "3H-glycine binding assay in cortical membranes", "details": "for Hill slope (nH), displacement of 3H-glycine binding: mean ± S.E.M.", "experimental": "as §1, with “^3 H-Glycine (^3 H-GLY), ^3 H-TCP and NMDA specific ^3 H-GLU binding assays were performed in a buffy coat rat cortical membrane preparation (Jones et al., 1989). The tissue” for “The tissue”\nC. ^3 H-Glycine Binding Assay\n^3 H-glycine binding assays were initiated by addition of 100 μl aliquots of membrane homogenate (100-150 μg protein) to test tubes containing 20 nM ^3 H-glycine in the presence or absence of the test drug(s) dissolved in 50 mM Tris acetate or 50 mM Na-free HEPES buffer pH 7.5 for a final volume of 1 ml, followed by incubation for 30 min at 4° C. […] The filtration procedure and scintillation counting were performed as described above.\nas §2"}, "[6]": {"test_system": "glycine modulatory site", "details": "Kemp et al., 1988; cited from earlier work"}, "[7]": {"target": "T2, strychnine-insensitive glycine site associated with the NMDA receptor/channel complex", "details": "read-out: K1 at the glycine site (reported); Fletcher and Lodge, 1988; cited from earlier work"}, "[8]": {"test_system": "NMDA-mediated neuronal response", "details": "glycine-reversible; Fletcher and Lodge, 1988; cited from earlier work"}, "[9]": {"details": "tissue treated with 7-chloro-4-hydroxyquinaldic acid and exposed to UV light"}}, "note": "Where “and” joins values, the source holds several entries; their conditions need not be identical. Identical values can stand only once. Like-named read-outs stand apart in the source and are kept apart here."}
{"smiles": "[N-]=[N+]=NC(=O)c1cc(O)c2ccc(Cl)cc2n1", "note": "[7-chloro-4-hydroxy-2-quinoline carbonyl azide]", "values": [{"measurement": "mode of inhibition of glycine action on 3H-TCP binding, non-photolyzed", "setting": "[1]; non-photolyzed azide", "value": "competitive antagonism of the actions of glycine"}, {"measurement": "inhibition at 10 µM", "setting": "[1]; read-out: decrease of 3H-TCP binding in the absence of added glycine", "value": 70, "unit": "%"}, {"measurement": "mode of inhibition of glycine-enhanced 3H-TCP binding, UV irradiated", "setting": "[1]; tissue UV irradiated in the presence of azide", "value": "distinctly non-competitive inhibition of glycine-enhanced ^3 H-TCP binding"}, {"measurement": "solubility in polar solutions", "setting": "[2]", "value": "limited solubility"}, {"measurement": "fluorescent bands on SDS polyacrylamide gel after photolabeling", "setting": "[3]", "value": "two distinct fluorescent bands"}, {"measurement": "Ki", "setting": "[4]; n=5, mean ± S.E.M., read-out: K1 for the NMDA site", "value": "101 ± 12", "unit": "µM"}, {"measurement": "displacement of NMDA-specific 3H-L-glutamate binding", "setting": "[4]; rat cortical membranes, FIG. 2B", "value": "less than 10%"}, {"measurement": "Ki", "setting": "[5]", "value": "2.4 ± 0.2", "unit": "µM"}, {"measurement": "decrease in the apparent affinity for the 3H-glycine binding site on introduction of an azido group", "setting": "[5]; azide relative to 7-chloro-4-hydroxyquinaldic acid", "value": 5, "unit": "fold"}, {"measurement": "mode of displacement of 3H-glycine binding", "setting": "[5]; rat cortical membranes, red light", "value": "apparently competitive"}, {"measurement": "Hill slope (nH), displacement of 3H-glycine binding", "setting": "[5]; rat cortical membranes", "value": "0.90±0.08"}, {"measurement": "selectivity for the 3H-glycine binding site", "setting": "[5]; relative to the NMDA recognition site labeled by 3H-L-glutamate", "value": "selective affinity for the ^3 H-glycine binding site relative to the NMDA recognition site"}]}
{"smiles": "O=C(O)c1cc(O)c2ccc(Cl)cc2n1", "note": "[7-chloro-4-hydroxyquinaldic acid]", "values": [{"measurement": "reduction of 3H-TCP binding in the absence of added glycine", "setting": "[1]; [9]", "value": 100, "unit": "%"}, {"measurement": "rightward parallel shift of the glycine concentration-response curve", "setting": "[1]; [9]", "value": 4, "unit": "fold"}, {"measurement": "Ki", "setting": "[5]", "value": "0.49 ± 0.05", "unit": "µM"}, {"measurement": "Hill slope (nH), displacement of 3H-glycine binding", "setting": "[5]; rat cortical membranes", "value": "0.74±0.03"}, {"measurement": "activity at the glycine modulatory site", "setting": "[6]", "value": "selective antagonist of the glycine modulatory site"}]}
{"smiles": "NC1CCN(O)C1=O", "note": "(stereo not drawn) [HA-966, 1-hydroxy-3-aminopyrrolidone-2]", "values": [{"measurement": "Ki", "setting": "[7]", "value": "~5", "unit": "µM"}, {"measurement": "effect on NMDA-mediated neuronal response", "setting": "[8]", "value": "reduce NMDA-mediated neuronal response in a glycine-reversible manner"}]}
{"smiles": "NCC(=O)O", "note": "[glycine]", "values": [{"measurement": "slope of glycine concentration-response, 3H-TCP binding", "setting": "[1]", "value": "1.02 and 0.93 and 1.15"}, {"measurement": "Emax", "setting": "[1]; read-out: maximal increase of 3H-TCP binding by glycine", "value": 150, "unit": "%"}]}
